The target in experiment [1] is T1, Full length human recombinant HDAC8 protein (Homo sapiens, UniProt Q9BY41).
T1 construct: Full length human recombinant HDAC8 protein was expressed in baculoviral system; made in house
T1 sequence (Q9BY41 1-377): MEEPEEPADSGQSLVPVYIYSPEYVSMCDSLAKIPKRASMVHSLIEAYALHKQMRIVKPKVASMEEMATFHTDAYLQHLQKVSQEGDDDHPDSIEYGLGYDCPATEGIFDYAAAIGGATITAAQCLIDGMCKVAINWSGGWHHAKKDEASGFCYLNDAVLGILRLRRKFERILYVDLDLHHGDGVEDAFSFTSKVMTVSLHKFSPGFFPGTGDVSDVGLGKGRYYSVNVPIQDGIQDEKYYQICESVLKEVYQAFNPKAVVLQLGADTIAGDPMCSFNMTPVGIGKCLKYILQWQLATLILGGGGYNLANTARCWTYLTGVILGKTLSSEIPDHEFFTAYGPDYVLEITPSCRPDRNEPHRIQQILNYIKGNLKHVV
The experiment in a line: In vitro histone deacetylase assay: enzymatic HDAC8 assay, electrophoretic mobility shift. The format is biochemical. The following applies: substrate RHKK(Ac)-NH2, 1 nM enzyme, compounds listed under IC50 range headings. In outline:
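Readout was microfluidic mobility-shift separation of deacetylated product from fluorescent RHKK(Ac)-NH2 substrate (2 µM), after reaction with 1 nM recombinant full-length human HDAC8 at 25 °C, pH 7.5, stopped with SDS. Twelve 3-fold-spaced concentrations tested; product/sum ratios normalized to controls and fitted with a 4-parameter model for IC50.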
(In EMSA bound probe runs differently from free probe, usually more slowly.)

Experiment [2] has as its target T2, Recombinant N-terminal GST tag full-length human HDAC8 (Homo sapiens, UniProt Q9BY41).
T2 construct: Recombinant N-terminal GST tag full-length human HDAC8; purchased SignalChem H90-30G-1000; host or cells: Sf9 insect cells (baculovirus)
T2 sequence (Q9BY41 1-377): T1 sequence (Q9BY41 1-377)
The experiment in a line: HDAC8 probe binding assay, time resolved fluorescence (TRF). The following applies: fluorescein labeled pan-HDAC inhibitor probe, 16 hours incubation, compounds listed under IC50 range headings. In outline:
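TR-FRET probe displacement using GST-tagged full-length human HDAC8 (Sf9-expressed, 2.5 nM) with 1.5 nM fluorescein-labelled pan-HDAC inhibitor probe and anti-GST terbium, in HEPES pH 7.5 buffer with GSH, BGG, Triton X-100. Compounds 25 μM–1.3 nM, 10-point; 16 h at room temperature. IC50 from 4-parameter fit of % inhibition versus no-enzyme and DMSO controls.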

Each structure is given as a SMILES string.

For orientation: IC50 means the concentration at which inhibition is half-maximal.

Consider `CC(C)CCC(=O)Nc1ccccc1/C=C/C(=O)NO` [Example I-67, (E)-N-(2-(3-(hydroxyamino)-3-oxoprop-1-en-1-yl)phenyl)-4-methylpentanamide], for which the IC50 in experiment [1] is below 1 µM; in experiment [2] it was at most 1 µM.

In the case of `CC(C)(C)OC(=O)N1CCCC12CCN(c1ccccc1/C=C/C(=O)NO)C2` (stereo not shown) [Example I-541, tert-butyl (E)-7-(2-(3-(hydroxyamino)-3-oxoprop-1-en-1-yl)phenyl)-1,7-diazaspiro[4.4]nonane-1-carboxylate], the IC50 is below 1 µM in experiment [1] and at most 1 µM in experiment [2].

Consider `O=C(/C=C/c1ccccc1N1CCN(C(=O)c2cn[nH]c2)CC1)NO` [Example I-206], for which the IC50 is below 1 µM in experiment [1] and at most 1 µM in experiment [2].

`CCn1nc(C)cc1C(=O)Nc1ccccc1/C=C/C(=O)NO` [Example I-274, (E)-1-ethyl-N-(2-(3-(hydroxyamino)-3-oxoprop-1-en-1-yl)phenyl)-3-methyl-1H-pyrazole-5-carboxamide]: the IC50 in experiment [1] was below 1 µM; in experiment [2], at most 1 µM.

Consider `O=C(/C=C/c1ccccc1N1CCN(S(=O)(=O)c2ccccc2)CC1=O)NO` [Example I-526, (E)-N-hydroxy-3-(2-(2-oxo-4-(phenylsulfonyl)piperazin-1-yl)phenyl)acrylamide], for which the IC50 in experiment [1] is below 1 µM; in experiment [2], at most 1 µM.

Take `Cn1ccc(S(=O)(=O)NC2CCN(c3ccccc3/C=C/C(=O)NO)CC2)n1` [Example I-219, (E)-N-hydroxy-3-(2-(4-((1-methyl-1H-pyrazole)-3-sulfonamido)piperidin-1-yl)phenyl)acrylamide]: the results for the IC50 in experiment [1] and in experiment [2] were below 1 µM and at most 1 µM, respectively.

Turning to `NC(=O)CCc1cccc(C(=O)Nc2ccccc2/C=C/C(=O)NO)c1` [Example I-107, (E)-3-(3-amino-3-oxopropyl)-N-(2-(3-(hydroxyamino)-3-oxoprop-1-en-1-yl)phenyl)benzamide], the half-maximal inhibitory concentration (IC50) in experiment [1] is below 1 µM; in experiment [2], at most 1 µM.

Take `O=C(/C=C/c1ccccc1NC(=O)c1ccncc1N1CCOCC1)NO` [Example I-313, (E)-N-(2-(3-(hydroxyamino)-3-oxoprop-1-en-1-yl)phenyl)-3-morpholinoisonicotinamide]: the IC50 in experiment [1] is below 1 µM; in experiment [2] it was at most 1 µM.

With `O=C(/C=C/c1ccccc1NC(=O)c1cccc(C(F)(F)F)c1)NO` [Example I-41, (E)-N-(2-(3-(hydroxyamino)-3-oxoprop-1-en-1-yl)phenyl)-3-(trifluoromethyl)benazmide], the IC50 in experiment [1] is below 1 µM; in experiment [2] it was at most 1 µM.

Take `O=C(/C=C/c1ccccc1NC(=O)c1ccc2[nH]ccc2c1)NO` [Example I-62, (E)-N-(2-(3-(hydroxyamino)-3-oxoprop-1-en-1-yl)phenyl)-1H-indole-5-carboxamide]: the results for the IC50 in experiment [1] and in experiment [2] were below 1 µM and at most 1 µM, respectively.

On to `Cc1ncsc1C(=O)N1CCN(c2ccccc2/C=C/C(=O)NO)CC1` [Example I-200, (E)-N-hydroxy-3-(2-(4-(4-methylthiazole-5-carbonyl)piperazin-1-yl)phenyl)acrylamide], for which the IC50 in experiment [1] is below 1 µM; in experiment [2], at most 1 µM.

For the compound `O=C(/C=C/c1ccccc1NC(=O)c1ccc(-n2cccn2)cc1)NO` [Example I-72, (E)-N-(2-(3-(hydroxyamino)-3-oxoprop-1-en-1-yl)phenyl)-4-(1H-pyrazol-1-yl)benzamide], the half-inhibitory concentration (IC50) in experiment [1] is below 1 µM; in experiment [2], at most 1 µM.

For the compound `CS(=O)(=O)c1nc(C(=O)Nc2ccccc2/C=C/C(=O)NO)c2ccccn12` [Example I-85, (E)-N-(2-(3-(hydroxyamino)-3-oxoprop-1-en-1-yl)phenyl)-3-(methylsulfonyl)imidazo[1,5-a]pyridine-1-carboxamide], the IC50 is below 1 µM in experiment [1] and at most 1 µM in experiment [2].

As for `Cc1cc(C)n(Cc2ccc(C(=O)Nc3ccccc3/C=C/C(=O)NO)cc2)n1` [Example I-288, (E)-4-((3,5-dimethyl-1H-pyrazol-1-yl)methyl)-N-(2-(3-(hydroxyamino)-3-oxoprop-1-en-1-yl)phenyl)benzamide], the IC50 in experiment [1] was below 1 µM; in experiment [2], at most 1 µM.

With `O=C(/C=C/c1ccccc1NC(=O)c1ccc(OC(F)F)cc1)NO` [Example I-70, (E)-4-(difluoromethxoy)-N-(2-(3-(hydroxyamino)-3-oxoprop-1-en-1-yl)phenyl)benzamide], the IC50 in experiment [1] is below 1 µM; in experiment [2] it was at most 1 µM.

As to `O=C(/C=C/c1ccccc1NC(=O)c1csc(-c2cccnc2)n1)NO` [Example I-75, (E)-N-(2-(3-(hydroxyamino)-3-oxoprop-1-en-1-yl)phenyl)-2-(pyridin-3-yl)thiazole-4-carboxamide], the values for the IC50 in experiment [1] and in experiment [2] were below 1 µM and at most 1 µM, respectively.

Consider `CC(C)(C)OC(=O)N1CCCCC12CCN(c1ccccc1/C=C/C(=O)NO)C2` (stereo not shown) [Example I-543, tert-butyl (E)-2-(2-(3-(hydroxyamino)-3-oxoprop-1-en-1-yl)phenyl)-2,6-diazaspiro[4.5]decane-6-carboxylate], for which the IC50 in experiment [1] is below 1 µM; in experiment [2], at most 1 µM.

With `O=C(/C=C/c1ccccc1N1CC(c2ccccc2)CC1=O)NO` (stereo not shown) [Example I-309, (E)-N-hydroxy-3-(2-(2-oxo-4-phenylpyrrolidin-1-yl)phenyl)acrylamide], the figures for the IC50 in experiment [1] and in experiment [2] were below 1 µM and at most 1 µM, respectively.

Regarding `O=C(/C=C/c1ccccc1N1CCN(S(=O)(=O)c2ccc(OC(F)(F)F)cc2)CC1=O)NO` [Example I-527, (E)-N-hydroxy-3-(2-(2-oxo-4-((4-(trifluoromethoxy)phenyl)sulfonyl)piperazin-1-yl)phenyl)acrylamide], the IC50 was below 1 µM in experiment [1] and at most 1 µM in experiment [2].

As to `O=C(/C=C/c1ccccc1NC(=O)CC1CCCC1)NO` [Example I-68, (E)-3-(2-(2-cyclopentylacetamido)phenyl)-N-hydroxyacrylamide], the IC50 in experiment [1] is below 1 µM; in experiment [2], at most 1 µM.

On to `Cc1cc(CNc2ccccc2/C=C/C(=O)NO)n(C)n1` [Example I-94, (E)-3-(2-(((1,3-dimethyl-1H-pyrazol-5-yl)methyl)amino)phenyl)-N-hydroxyacrylamide], for which the 50% inhibitory concentration (IC50) in experiment [1] is below 1 µM; in experiment [2] it was at most 1 µM.

Turning to `O=C(/C=C/c1ccccc1N1CCC(c2ccccc2)C1=O)NO` (stereo not shown) [Example I-262, (E)-N-hydroxy-3-(2-(2-oxo-3-phenylpyrrolidin-1-yl)phenyl)acrylamide], the values for the IC50 in experiment [1] and in experiment [2] were below 1 µM and at most 1 µM, respectively.

Take `CCCn1c(C(=O)Nc2ccccc2/C=C/C(=O)NO)cc2ccccc21` [Example I-270, (E)-N-(2-(3-(hydroxyamino)-3-oxoprop-1-en-1-yl)phenyl)-1-propyl-1H-indole-2-carboxamide]: the IC50 in experiment [1] was below 1 µM; in experiment [2], at most 1 µM.

Regarding `O=C(/C=C/c1ccccc1NC(=O)c1ccccc1Oc1ccc(C(F)(F)F)cc1)NO` [Example I-303, (E)-N-(2-(3-(hydroxyamino)-3-oxoprop-1-en-1-yl)phenyl)-2-(4-(trifluoromethyl)phenoxy)benzamide], the IC50 in experiment [1] is below 1 µM; in experiment [2], at most 1 µM.

Consider `O=C(/C=C/c1ccccc1C(=O)N1CCC[C@H](Cn2ccnc2)C1)NO` [II-27, (R,E)-3-(2-(3-((1H-imidazol-1-yl)methyl)piperidine-1-carbonyl)phenyl)-N-hydroxyacrylamide], for which the IC50 in experiment [1] was below 1 µM; in experiment [2] it was at most 1 µM.

In the case of `Cc1cc(CN2CCN(c3ccccc3/C=C/C(=O)NO)CC2)n(C)n1` [Example I-183, (E)-3-(2-(4-((1,3-dimethyl-1H-pyrazol-5-yl)methyl)piperazin-1-yl)phenyl)-N-hydroxyacrylamide], the figures for the IC50 in experiment [1] and in experiment [2] were below 1 µM and at most 1 µM, respectively.

For the compound `O=C(/C=C/c1ccccc1N1CCN(Cc2ccc(F)cc2)CC1=O)NO` [Example I-530, (E)-3-(2-(4-(4-fluorobenzyl)-2-oxopiperazin-1-yl)phenyl)-N-hydroxyacrylamide], the 50% inhibitory concentration (IC50) was below 1 µM in experiment [1] and at most 1 µM in experiment [2].

In the case of `O=C(/C=C/c1ccccc1NC(=O)c1nc(Oc2ccccc2)cs1)NO` [Example I-544, N-{2-[(1E)-2-(hydroxycarbamoyl)eth-1-en-1-yl]phenyl}-4-phenoxy-1,3-thiazole-2-carboxamide], the half-inhibitory concentration (IC50) in experiment [1] is below 1 µM; in experiment [2], at most 1 µM.

Turning to `O=C(/C=C/c1ccccc1NCc1ccnc(N2CCOCC2)c1)NO` [Example I-98, (E)-N-hydroxy-3-(2-(((2-morpholinopyridin-4-yl)methyl)amino)phenyl)acrylamide], the IC50 in experiment [1] was below 1 µM; in experiment [2] it was at most 1 µM.

These data come from patent publication US10508077B2 (FORMA Therapeutics, Inc., priority 2015, dated 2019).
